Data as given in patent US8097624B2, “Cycloalkyl derivatives of 3-hydroxy-4-pyridinones” (Apotex Inc., priority 2006, dated 2012).

Key:
Assay type in all cases: binding
[1] = Metal complexation constants, Ca system
Method: (§1) In a typical experiment, the sample solution was prepared by the following method: Apo6619 (31.91 mg) was weighed into a 25-ml beaker followed by the addition of 0.1 M NaCl (18.9 ml). The mixture was sonicated for 10 minutes to give a clear colorless solution. Aluminum stock solution (atomic absorption standard, Aldrich, 971 μl, 3.59×10^−5 mole) was pipetted into the solution followed by the addition of 1.000 N NaOH (229 μl) to give pH 8.56. The molar ratio between the total Aluminum and the total Apo6619 was 1:4. For M^2+ metals, a molar ratio of 1:3 was used. Nitrogen was allowed to bubble through the solution. The mixture was allowed to equilibrate at 22° C. for 2 hours. 1.000 N Hydrochloric acid (264 μl) was then added to the solution to give pH 2.20. The solution was allowed to equilibrate at 22° C. for 1 hour.
(§2) The solution was titrated against 1.000 N NaOH at 22° C. to reach pH 11.0. For each addition of base, the solution was allowed to equilibrate until a constant pH reading was reached. The volume of the base added and the pH reading were then recorded for each measurement. 93 measurements were used in the experiment.
(§3) The data set of pH vs. base volume was analyzed using Hyperquad 2000. Given the model: L^−+H^+ ? LH (pKa1), LH+H^+ ? LH2^+ (pKa2), Al^3++L^− ? ^AlL^2+ (K1), AlL^2++L^− ? AlL2^+ (K2), AlL2^++L^− ? AlL3 (K3), and β3=K1K2K3, the stepwise formation constants for Al-Apo6619 system were optimized as log K1=12.6(2); log K2=9.2(1); log K3=8.4(1); log β3=30.2(2).
(§4) pM^n+ is defined as −log [M(H2O)m]^n+ at physiological conditions, i.e.: pH 7.4, a ligand concentration of 10 μM, and a metal concentration of 1 μM.
(§5) To calculate pM^n+ for a MLn system, βn and pKa values are needed (βn are the formation constants for M^n++n L^− ? MLn; pKa are the equilibrium constants for L^−+n H^+ ? LHn^(n−1)+). The pM^n+ can be calculated by using Hyss software (Hyperquad Stimulation and Speciation software: HYSS2© 2000 Protonic Sofware).

[2] = Metal complexation constants, Mg system
Method: as §1, §2, §3, §4, §5

[3] = Metal complexation constants, Al system (potentiometric titration; pM by Hyss); details: pH 7.4, ligand 10 μM, metal 1 μM
Method: as §1, with “1.000 N Hydrochloric acid (264 μl) was then added to the solution to give pH 2.20. The solution was allowed to equilibrate at 22° C. for 1 hour.” left out
The solution was titrated against 1.000 N NaOH at 22° C. to reach pH 11.0. For each addition of base, the solution was allowed to equilibrate until a constant pH reading was reached. The volume of the base added and the pH reading were then recorded for each measurement. […]
The data set of pH vs. base volume was analyzed using Hyperquad 2000. […]
as §5

[4] = Metal complexation constants, Mn system
Method: as §1, §2, §3, §4, §5

[5] = Metal complexation constants, Cu system
Method: as §1, §2, §3, §4, §5

[6] = Metal complexation constants, Zn system
Method: as §1, §2, §3, §4, §5

[7] = pH 7.4, ligand 10 μM, metal 1 μM

## CNC(=O)c1c(O)c(=O)cc(C)n1C1CC1 [Apo6619, 1-Cyclopropyl-3-hydroxy-6-methyl-4-oxo-1,4-dihydro-pyridine-2-carboxylic Acid Methylamide]
[1]; log scale
  log K1 Ca(II): 3
  log K2 Ca(II): 2.1
  log β2 Ca(II): 5.1
[1]; [7]
  PM Ca(II): 6.0
[2]; log scale
  log K1 Mg(II): 4.1
  log K2 Mg(II): 3.2
  log β2 Mg(II): 7.3
[2]; [7]
  PM Mg(II): 6.0
[3]
  PM Al(III): 13.9
[4]; log scale
  log K1 Mn(II): 5.1
  log K2 Mn(II): 4.3
  log β2 Mn(II): 9.4
[4]; [7]
  PM Mn(II): 6.0
[5]; log scale
  log K1 Cu(II): 8.9
  log K2 Cu(II): 7.7
  log β2 Cu(II): 16.6
[5]; [7]
  PM Cu(II): 10
[6]; log scale
  log K1 Zn(II): 6.3
  log K2 Zn(II): 5.8
  log β2 Zn(II): 12.1
[6]; [7]
  PM Zn(II): 6.4
